PMC5762309 (Oncotarget, 2017)
Where two headings read alike, the source gives them in different places.

Tests used:
LZK = molecular target: T1, LZK (Homo sapiens, UniProt O43283); test: KINOMEScan; format: binding; parameters: dose or concentration left out as unconfirmed
T1 construct: purchased DiscoverX KINOMEscan

MLK3 = molecular target: T2, MLK3 (Homo sapiens, UniProt Q16584); test: KINOMEScan; format: binding; parameters: dose or concentration left out as unconfirmed
T2 construct: purchased DiscoverX KINOMEscan

KIT V559D/V654A = KIT V559D/V654A (Homo sapiens, UniProt P10721, V559D/V654A); test: KIT auto-phosphorylation in transformed BaF3 cells; conditions: 2h
CDK8 = molecular target: T3, CDK8 (Homo sapiens, UniProt P49336); test: KINOMEScan; format: binding; parameters: dose or concentration left out as unconfirmed
T3 construct: purchased DiscoverX KINOMEscan

ITK = molecular target: T4, ITK (Homo sapiens, UniProt Q08881); test: KINOMEScan; format: binding; parameters: dose or concentration left out as unconfirmed
T4 construct: purchased DiscoverX KINOMEscan

JNK2 = molecular target: T5, JNK2 (Homo sapiens, UniProt P45984); test: KINOMEScan; format: binding; parameters: dose or concentration left out as unconfirmed
T5 construct: purchased DiscoverX KINOMEscan

DCAMKL1 = molecular target: T6, DCAMKL1 (Homo sapiens, UniProt O15075); test: KINOMEScan; format: binding; parameters: dose or concentration left out as unconfirmed
T6 construct: purchased DiscoverX KINOMEscan

PIKFYVE = molecular target: T7, PIKFYVE (Homo sapiens, UniProt Q9Y2I7); test: KINOMEScan; format: binding; parameters: dose or concentration left out as unconfirmed
T7 construct: purchased DiscoverX KINOMEscan

DLK = molecular target: T8, DLK (Homo sapiens, UniProt Q12852); test: KINOMEScan; format: binding; parameters: dose or concentration left out as unconfirmed
T8 construct: purchased DiscoverX KINOMEscan

CSNK1G1 = molecular target: T9, CSNK1G1 (Homo sapiens, UniProt Q9HCP0); test: KINOMEScan; format: binding; parameters: dose or concentration left out as unconfirmed
T9 construct: purchased DiscoverX KINOMEscan

p38-alpha = molecular target: T10, p38-alpha (Homo sapiens, UniProt Q16539); test: KINOMEScan; format: binding; parameters: dose or concentration left out as unconfirmed
T10 construct: purchased DiscoverX KINOMEscan

PRKR = molecular target: T11, PRKR (Homo sapiens, UniProt P19525); test: KINOMEScan; format: binding; parameters: dose or concentration left out as unconfirmed
T11 construct: purchased DiscoverX KINOMEscan

KIT wt [1] = molecular target: T12, KIT wt (Homo sapiens, UniProt P10721); test: KIT auto-phosphorylation in transformed BaF3 cells; format: cell-based; conditions: 2h
Target sequence in this assay (P10721 546-937 limits assumed): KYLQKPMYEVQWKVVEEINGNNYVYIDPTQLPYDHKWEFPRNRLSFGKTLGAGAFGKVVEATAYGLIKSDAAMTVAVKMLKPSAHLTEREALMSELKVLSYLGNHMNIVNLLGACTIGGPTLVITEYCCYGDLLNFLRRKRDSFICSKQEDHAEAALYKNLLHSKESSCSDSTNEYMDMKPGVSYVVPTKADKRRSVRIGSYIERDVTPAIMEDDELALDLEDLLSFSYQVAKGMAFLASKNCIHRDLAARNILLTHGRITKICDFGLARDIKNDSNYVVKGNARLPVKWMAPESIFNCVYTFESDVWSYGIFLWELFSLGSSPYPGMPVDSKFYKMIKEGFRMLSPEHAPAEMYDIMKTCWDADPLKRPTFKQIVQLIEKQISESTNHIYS

CDK3 = molecular target: T13, CDK3 (Homo sapiens, UniProt Q00526); test: KINOMEScan; format: binding; parameters: dose or concentration left out as unconfirmed
T13 construct: purchased DiscoverX KINOMEscan

CHEK1 = molecular target: T14, CHEK1 (Homo sapiens, UniProt O14757); test: KINOMEScan; format: binding; parameters: dose or concentration left out as unconfirmed
T14 construct: purchased DiscoverX KINOMEscan

EGFR(T790M) = molecular target: T15, EGFR(T790M) (Homo sapiens, UniProt P00533, T790M); test: KINOMEScan; format: binding
T15 construct: purchased DiscoverX KINOMEscan

KIT wt [2] = molecular target: T12, KIT wt; test: Kd determination by MST; format: binding; parameters: wt KIT residues 544-935 with a His tag; His tag; made in house; host or cells: SF9 insect cells (baculovirus); conditions: purified protein
EPHA5 = molecular target: T16, EPHA5 (Homo sapiens, UniProt P54756); test: KINOMEScan; format: binding; parameters: dose or concentration left out as unconfirmed
T16 construct: purchased DiscoverX KINOMEscan

JNK1 = molecular target: T17, JNK1 (Homo sapiens, UniProt P45983); test: KINOMEScan; format: binding; parameters: dose or concentration left out as unconfirmed
T17 construct: purchased DiscoverX KINOMEscan

LATS2 = molecular target: T18, LATS2 (Homo sapiens, UniProt Q9NRM7); test: KINOMEScan; format: binding; parameters: dose or concentration left out as unconfirmed
T18 construct: purchased DiscoverX KINOMEscan

EGFR(L858R) = molecular target: T19, EGFR(L858R) (Homo sapiens, UniProt P00533, L858R); test: KINOMEScan; format: binding; parameters: dose or concentration left out as unconfirmed
T19 construct: purchased DiscoverX KINOMEscan

LOK = molecular target: T20, LOK (Homo sapiens, UniProt O94804); test: KINOMEScan; format: binding; parameters: dose or concentration left out as unconfirmed
T20 construct: purchased DiscoverX KINOMEscan

[3] = molecular target: T21, EGFR(L747-S752del, P753S) (Homo sapiens, UniProt P00533, DEL747-752/P753S); test: KINOMEScan; format: binding; parameters: dose or concentration left out as unconfirmed
T21 construct: purchased DiscoverX KINOMEscan

MET = molecular target: T22, MET (Homo sapiens, UniProt P08581); test: KINOMEScan; format: binding; parameters: dose or concentration left out as unconfirmed
T22 construct: purchased DiscoverX KINOMEscan

MET(M1250T) = molecular target: T23, MET(M1250T) (Homo sapiens, UniProt P08581, M1250T); test: KINOMEScan; format: binding; parameters: dose or concentration left out as unconfirmed
T23 construct: purchased DiscoverX KINOMEscan

KIT L576p = KIT L576p (Homo sapiens, UniProt P10721, L576P); test: KIT auto-phosphorylation in transformed BaF3 cells; conditions: 2h
ARK5 = molecular target: T24, ARK5 (Homo sapiens, UniProt O60285); test: KINOMEScan; format: binding; parameters: dose or concentration left out as unconfirmed
T24 construct: purchased DiscoverX KINOMEscan

MKK7 = molecular target: T25, MKK7 (Homo sapiens, UniProt O14733); test: KINOMEScan; format: binding; parameters: dose or concentration left out as unconfirmed
T25 construct: purchased DiscoverX KINOMEscan

EGFR(G719S) = molecular target: T26, EGFR(G719S) (Homo sapiens, UniProt P00533, G719S); test: KINOMEScan; format: binding; parameters: dose or concentration left out as unconfirmed
T26 construct: purchased DiscoverX KINOMEscan

EGFR(L747-T751del,Sins) = test: KINOMEScan; format: binding; parameters: dose or concentration left out as unconfirmed
PIP5K1C = molecular target: T27, PIP5K1C (Homo sapiens, UniProt O60331); test: KINOMEScan; format: binding; parameters: dose or concentration left out as unconfirmed
T27 construct: purchased DiscoverX KINOMEscan

PLK2 = molecular target: T28, PLK2 (Homo sapiens, UniProt Q9NYY3); test: KINOMEScan; format: binding; parameters: dose or concentration left out as unconfirmed
T28 construct: purchased DiscoverX KINOMEscan

[4] = EC50 pY703 auto-phosphorylation
[5] = EC50 pY719 auto-phosphorylation
[6] = EC50 pY823 auto-phosphorylation

KIT V559D/V654A, sequence (P10721 546-976 V559D/V654A): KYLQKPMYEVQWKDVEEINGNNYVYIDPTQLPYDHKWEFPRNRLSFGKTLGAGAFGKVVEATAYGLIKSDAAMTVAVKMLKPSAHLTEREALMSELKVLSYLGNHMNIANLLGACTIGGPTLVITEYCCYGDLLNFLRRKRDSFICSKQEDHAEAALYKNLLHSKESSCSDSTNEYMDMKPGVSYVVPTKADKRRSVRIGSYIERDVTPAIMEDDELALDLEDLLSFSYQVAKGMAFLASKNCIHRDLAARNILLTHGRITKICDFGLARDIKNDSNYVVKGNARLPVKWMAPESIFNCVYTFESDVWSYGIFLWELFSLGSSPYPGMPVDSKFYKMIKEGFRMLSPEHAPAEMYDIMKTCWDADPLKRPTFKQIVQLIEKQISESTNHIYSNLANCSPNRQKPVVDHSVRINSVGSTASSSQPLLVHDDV
KIT L576p, sequence (P10721 26-976 L576P): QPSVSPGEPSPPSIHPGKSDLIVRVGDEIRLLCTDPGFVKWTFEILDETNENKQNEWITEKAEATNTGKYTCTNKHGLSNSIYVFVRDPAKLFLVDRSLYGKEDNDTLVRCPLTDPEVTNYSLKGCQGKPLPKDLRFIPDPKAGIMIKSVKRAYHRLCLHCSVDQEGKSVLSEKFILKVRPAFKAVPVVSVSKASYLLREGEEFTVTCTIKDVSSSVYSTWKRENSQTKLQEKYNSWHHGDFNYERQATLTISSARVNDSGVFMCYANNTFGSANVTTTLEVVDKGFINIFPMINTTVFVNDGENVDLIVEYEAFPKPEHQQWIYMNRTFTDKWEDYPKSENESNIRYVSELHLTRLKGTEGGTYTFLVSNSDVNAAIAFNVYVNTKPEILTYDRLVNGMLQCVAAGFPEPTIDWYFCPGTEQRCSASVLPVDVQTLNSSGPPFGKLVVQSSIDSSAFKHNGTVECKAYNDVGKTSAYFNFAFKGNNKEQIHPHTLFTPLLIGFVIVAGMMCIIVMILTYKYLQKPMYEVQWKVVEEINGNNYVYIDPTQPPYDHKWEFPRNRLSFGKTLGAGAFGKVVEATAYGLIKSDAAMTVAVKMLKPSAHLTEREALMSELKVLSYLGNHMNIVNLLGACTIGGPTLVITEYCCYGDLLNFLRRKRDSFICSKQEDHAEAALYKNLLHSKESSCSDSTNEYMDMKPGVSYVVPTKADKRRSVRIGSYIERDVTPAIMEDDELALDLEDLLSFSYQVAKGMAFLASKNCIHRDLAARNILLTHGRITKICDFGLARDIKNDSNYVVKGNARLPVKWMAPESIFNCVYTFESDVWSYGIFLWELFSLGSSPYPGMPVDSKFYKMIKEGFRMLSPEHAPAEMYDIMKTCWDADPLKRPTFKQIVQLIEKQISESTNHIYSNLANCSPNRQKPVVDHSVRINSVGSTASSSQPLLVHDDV
T28 sequence (Q9NYY3 whole entry): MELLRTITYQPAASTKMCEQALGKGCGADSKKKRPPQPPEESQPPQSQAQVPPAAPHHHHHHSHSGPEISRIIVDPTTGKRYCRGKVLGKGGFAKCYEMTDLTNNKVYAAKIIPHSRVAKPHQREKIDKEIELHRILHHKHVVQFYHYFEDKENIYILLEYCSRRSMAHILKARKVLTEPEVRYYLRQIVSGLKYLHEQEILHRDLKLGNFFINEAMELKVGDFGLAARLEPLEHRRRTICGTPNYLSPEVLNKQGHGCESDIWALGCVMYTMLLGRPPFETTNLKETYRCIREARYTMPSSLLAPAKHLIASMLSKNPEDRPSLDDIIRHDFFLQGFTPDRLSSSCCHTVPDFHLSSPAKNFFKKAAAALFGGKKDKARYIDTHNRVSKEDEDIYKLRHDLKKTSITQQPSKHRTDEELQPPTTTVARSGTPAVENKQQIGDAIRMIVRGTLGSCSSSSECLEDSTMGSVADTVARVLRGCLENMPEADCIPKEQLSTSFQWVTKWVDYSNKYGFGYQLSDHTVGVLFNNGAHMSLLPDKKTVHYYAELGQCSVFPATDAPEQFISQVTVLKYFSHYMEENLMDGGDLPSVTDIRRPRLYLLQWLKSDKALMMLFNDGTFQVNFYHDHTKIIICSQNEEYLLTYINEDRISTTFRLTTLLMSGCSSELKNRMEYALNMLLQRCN
T3 sequence (P49336 whole entry): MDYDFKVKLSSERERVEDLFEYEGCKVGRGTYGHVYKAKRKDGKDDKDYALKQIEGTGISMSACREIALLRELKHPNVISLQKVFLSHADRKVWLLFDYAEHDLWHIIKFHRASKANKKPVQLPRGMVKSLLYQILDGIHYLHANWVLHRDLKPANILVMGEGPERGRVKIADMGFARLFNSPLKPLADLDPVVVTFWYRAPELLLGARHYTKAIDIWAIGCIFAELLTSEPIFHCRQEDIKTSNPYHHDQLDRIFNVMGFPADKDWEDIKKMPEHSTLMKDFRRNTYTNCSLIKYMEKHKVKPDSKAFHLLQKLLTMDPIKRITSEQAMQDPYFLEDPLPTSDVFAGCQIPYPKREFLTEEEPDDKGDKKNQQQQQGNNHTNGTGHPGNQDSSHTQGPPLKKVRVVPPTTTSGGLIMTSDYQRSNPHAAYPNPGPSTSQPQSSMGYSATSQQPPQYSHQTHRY
T4 sequence (Q08881 whole entry): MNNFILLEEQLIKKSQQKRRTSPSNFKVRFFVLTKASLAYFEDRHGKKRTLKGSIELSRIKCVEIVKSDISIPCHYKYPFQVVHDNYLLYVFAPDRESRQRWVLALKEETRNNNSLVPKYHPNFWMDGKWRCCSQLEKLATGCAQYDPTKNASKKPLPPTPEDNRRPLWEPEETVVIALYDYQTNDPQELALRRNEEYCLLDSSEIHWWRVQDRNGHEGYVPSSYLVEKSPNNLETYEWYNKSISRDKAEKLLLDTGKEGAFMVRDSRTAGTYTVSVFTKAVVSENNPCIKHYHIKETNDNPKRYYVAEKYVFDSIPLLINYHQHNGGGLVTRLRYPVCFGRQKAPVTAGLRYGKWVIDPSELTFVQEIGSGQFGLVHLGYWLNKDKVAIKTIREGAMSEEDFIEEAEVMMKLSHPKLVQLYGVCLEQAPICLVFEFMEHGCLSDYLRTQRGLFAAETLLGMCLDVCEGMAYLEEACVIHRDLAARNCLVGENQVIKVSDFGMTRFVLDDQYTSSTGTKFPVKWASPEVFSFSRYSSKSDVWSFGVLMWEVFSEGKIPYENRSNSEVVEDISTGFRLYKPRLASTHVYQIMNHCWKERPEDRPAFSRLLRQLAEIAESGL
T26 sequence (P00533 25-1210 G719S): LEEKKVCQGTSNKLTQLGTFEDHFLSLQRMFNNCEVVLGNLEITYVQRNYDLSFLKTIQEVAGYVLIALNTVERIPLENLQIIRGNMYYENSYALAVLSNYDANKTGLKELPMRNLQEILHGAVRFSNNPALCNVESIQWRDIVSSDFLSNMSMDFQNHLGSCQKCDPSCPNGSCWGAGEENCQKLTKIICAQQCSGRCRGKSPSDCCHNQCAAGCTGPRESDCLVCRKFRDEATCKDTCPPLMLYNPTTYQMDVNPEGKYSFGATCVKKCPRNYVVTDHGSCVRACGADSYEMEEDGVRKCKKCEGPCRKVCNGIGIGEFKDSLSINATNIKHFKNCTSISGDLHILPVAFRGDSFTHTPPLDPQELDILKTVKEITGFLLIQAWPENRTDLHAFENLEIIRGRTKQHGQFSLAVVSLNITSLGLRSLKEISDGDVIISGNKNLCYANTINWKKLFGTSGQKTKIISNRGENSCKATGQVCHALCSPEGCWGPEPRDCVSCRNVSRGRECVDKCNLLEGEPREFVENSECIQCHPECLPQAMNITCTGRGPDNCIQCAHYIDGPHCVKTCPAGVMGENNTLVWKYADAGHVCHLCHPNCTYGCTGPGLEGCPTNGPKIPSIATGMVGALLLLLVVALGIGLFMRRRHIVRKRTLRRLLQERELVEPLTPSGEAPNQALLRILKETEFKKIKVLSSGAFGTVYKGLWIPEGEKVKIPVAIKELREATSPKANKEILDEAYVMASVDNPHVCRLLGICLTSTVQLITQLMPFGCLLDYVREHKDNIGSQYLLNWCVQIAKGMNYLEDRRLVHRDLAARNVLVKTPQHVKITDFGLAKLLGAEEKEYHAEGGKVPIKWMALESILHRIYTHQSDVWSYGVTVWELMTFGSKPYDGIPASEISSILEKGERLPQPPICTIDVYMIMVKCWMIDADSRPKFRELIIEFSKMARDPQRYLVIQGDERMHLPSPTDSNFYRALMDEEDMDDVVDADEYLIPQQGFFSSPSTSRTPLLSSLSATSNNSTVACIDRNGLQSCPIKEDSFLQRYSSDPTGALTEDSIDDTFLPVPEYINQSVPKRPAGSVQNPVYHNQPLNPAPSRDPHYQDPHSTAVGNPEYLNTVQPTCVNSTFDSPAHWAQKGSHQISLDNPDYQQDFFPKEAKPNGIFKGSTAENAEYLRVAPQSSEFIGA
T13 sequence (Q00526 whole entry): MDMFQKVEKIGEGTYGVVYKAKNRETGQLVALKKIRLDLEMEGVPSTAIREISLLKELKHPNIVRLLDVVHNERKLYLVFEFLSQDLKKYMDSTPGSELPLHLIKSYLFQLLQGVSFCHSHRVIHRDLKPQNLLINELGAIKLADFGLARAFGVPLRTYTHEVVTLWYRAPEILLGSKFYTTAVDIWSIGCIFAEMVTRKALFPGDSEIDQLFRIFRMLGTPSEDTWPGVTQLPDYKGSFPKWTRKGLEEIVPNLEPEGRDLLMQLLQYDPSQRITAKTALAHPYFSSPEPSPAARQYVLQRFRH

For `COc1cc(C(=O)NCC(=O)Nc2ccc3c(/C=C/c4ccccn4)n[nH]c3c2)cc(OC)c1OC` [CHMFL-KIT-031], which KINOMEScan profiling value (LZK) is on record?
Its KINOMEScan profiling value is 100.

And the KINOMEScan profiling value (MLK3)?
Its KINOMEScan profiling value is 100.

What about the EC50 (KIT V559D/V654A; [4]) of the same compound?
The EC50 was 5.6 µM.

And the EC50 (KIT V559D/V654A; [5])?
The EC50 was 0.863 µM.

What about the EC50 (KIT V559D/V654A; [6]) of the same compound?
The EC50 was 5.4 µM.

What about the KINOMEScan profiling value (CDK8) of the same compound?
The KINOMEScan profiling value was 100.

What about the KINOMEScan profiling value (ITK) of the same compound?
Its KINOMEScan profiling value is 96.

And the KINOMEScan profiling value (JNK2)?
Its KINOMEScan profiling value is 92.

What about the KINOMEScan profiling value (DCAMKL1) of the same compound?
Its KINOMEScan profiling value is 100.

What about the KINOMEScan profiling value (PIKFYVE) of the same compound?
The KINOMEScan profiling value was 87.

What about the KINOMEScan profiling value (DLK) of the same compound?
Its KINOMEScan profiling value is 97.

What about the KINOMEScan profiling value (CSNK1G1) of the same compound?
The KINOMEScan profiling value was 100.

What about the KINOMEScan profiling value (p38-alpha) of the same compound?
Its KINOMEScan profiling value is 94.

And the KINOMEScan profiling value (PRKR)?
Its KINOMEScan profiling value is 97.

And the EC50 (KIT wt [1]; read-out: EC50 pY703 auto-phosphorylation)?
Its EC50 is 1.9 µM.

And the EC50 (KIT wt [1]; read-out: EC50 pY719 auto-phosphorylation)?
Its EC50 is 8.2 µM.

What about the EC50 (KIT wt [1]; read-out: EC50 pY823 auto-phosphorylation) of the same compound?
The EC50 was 6.9 µM.

And the KINOMEScan profiling value (CDK3)?
Its KINOMEScan profiling value is 100.

What about the KINOMEScan profiling value (CHEK1) of the same compound?
Its KINOMEScan profiling value is 97.

What about the KINOMEScan profiling value (EGFR(T790M)) of the same compound?
The KINOMEScan profiling value was 100.

And the Kd (KIT wt [2])?
Its Kd is 6.64 µM.

What about the KINOMEScan profiling value (EPHA5) of the same compound?
The KINOMEScan profiling value was 100.

And the KINOMEScan profiling value (JNK1)?
The KINOMEScan profiling value was 94.

What about the KINOMEScan profiling value (LATS2) of the same compound?
The KINOMEScan profiling value was 100.

And the KINOMEScan profiling value (EGFR(L858R))?
Its KINOMEScan profiling value is 100.

What about the KINOMEScan profiling value (LOK) of the same compound?
Its KINOMEScan profiling value is 96.

And the KINOMEScan profiling value [3]?
The KINOMEScan profiling value was 100.

And the KINOMEScan profiling value (MET)?
The KINOMEScan profiling value was 100.

And the KINOMEScan profiling value (MET(M1250T))?
Its KINOMEScan profiling value is 100.

And the EC50 (KIT L576p; [4])?
The EC50 was greater than 10 µM.

What about the EC50 (KIT L576p; [5]) of the same compound?
Its EC50 is 5.9 µM.

And the EC50 (KIT L576p; [6])?
The EC50 was 1.9 µM.

And the KINOMEScan profiling value (ARK5)?
Its KINOMEScan profiling value is 97.

And the KINOMEScan profiling value (MKK7)?
Its KINOMEScan profiling value is 100.

And the KINOMEScan profiling value (EGFR(G719S))?
Its KINOMEScan profiling value is 95.

What about the KINOMEScan profiling value (EGFR(L747-T751del,Sins)) of the same compound?
The KINOMEScan profiling value was 100.

And the KINOMEScan profiling value (PIP5K1C)?
The KINOMEScan profiling value was 71.

And the KINOMEScan profiling value (PLK2)?
The KINOMEScan profiling value was 100.
